# Patent US20260234144A1 (TAY THERAPEUTICS LIMITED, priority 2023, published 2026)
# System: R223X stop codon in the mutated luciferase gene, ADXC8 luciferase reporter cell line
# Test: cells
# Format: cell-based
# Conditions: 24 h, ADXC8 cells, 24 hours; for Emax: read-out: Fold Over Control, maximum fold response relative to 200 μM G418; for EC (100% of 200 uM G418 response): read-out: pC100%, negative logarithm of the concentration giving the same response as 200 μM G418
SMILES,Emax [%],EC (100% of 200 uM G418 response) [µM]
"COC(=O)c1ccc2c(N)nc(NC3CCN(C)CC3)nc2n1 [Example 235, methyl 4-amino-2-((1-methylpiperidin-4-yl)amino)pyrido[2,3-d]pyrimidine-7-carboxylate]",0 to 100,> 100
"CN1CCC(Nc2nc(N)c3ccc(C(=O)O)nc3n2)CC1 [Example 236, 4-amino-2-((1-methylpiperidin-4-yl)amino)pyrido[2,3-d]pyrimidine-7-carboxylic acid]",0 to 100,> 100
"COCc1ccc2c(N)nc(NC3CCN(C)CC3)nc2n1 [Example 237, 7-(methoxymethyl)-N^2-(1-methylpiperidin-4-yl)pyrido[2,3-d]pyrimidine-2,4-diamine]",100 to 3000,10 to 100
"C=C(C)c1ccc2c(N)nc(NC3CCN(C)CC3)nc2n1 [Example 238, N^2-(1-methylpiperidin-4-yl)-7-(prop-1-en-2-yl) pyrido[2,3-d]pyrimidine-2,4-diamine]",0 to 100,> 31.6
"CC(C)c1ccc2c(N)nc(NC3CCN(C)CC3)nc2n1 [Example 239, 7-isopropyl-N^2-(1-methylpiperidin-4-yl)pyrido[2,3-d]pyrimidine-2,4-diamine]",100 to 3000,1 to 10
"CC(CO)c1ccc2c(N)nc(NC3CCN(C)CC3)nc2n1 (stereo not shown) [Example 240, 2-(4-amino-2-((1-methylpiperidin-4-yl)amino)pyrido[2,3-d]pyrimidin-7-yl)propan-1-ol]",0 to 100,> 100
"COc1cnc2nc(NC3CCN(C)CC3)nc(N)c2c1 [Example 241, 6-methoxy-N^2-(1-methylpiperidin-4-yl)pyrido[2,3-d]pyrimidine-2,4-diamine]",0 to 100,> 31.6
"COCc1cnc2nc(NC3CCN(C)CC3)nc(N)c2c1 [Example 242, 6-(methoxymethyl)-N^2-(1-methylpiperidin-4-yl)pyrido[2,3-d]pyrimidine-2,4-diamine]",0 to 100,> 100
"CN1CCC(Nc2nc(N)c3cc(C4CCCC4)cnc3n2)CC1 [Example 243, 6-cyclopentyl-N^2-(1-methylpiperidin-4-yl)pyrido[2,3-d]pyrimidine-2,4-diamine]",100 to 3000,10 to 100
"CN1CCC(Nc2nc(N)c3c(O)ccnc3n2)CC1 [Example 244, 4-amino-2-((1-methylpiperidin-4-yl)amino)pyrido[2,3-d]pyrimidin-5-ol]",0 to 100,> 100
"C=C(C)c1ccnc2nc(NC3CCN(C)CC3)nc(N)c12 [Example 245, N^2-(1-methylpiperidin-4-yl)-5-(prop-1-en-2-yl)pyrido[2,3-d]pyrimidine-2,4-diamine]",0 to 100,> 100
"CC(C)c1ccnc2nc(NC3CCN(C)CC3)nc(N)c12 [Example 246, 5-isopropyl-N^2-(1-methylpiperidin-4-yl)pyrido[2,3-d]pyrimidine-2,4-diamine]",0 to 100,> 100
CNc1ccnc2nc(NC3CCN(C)CC3)nc(N)c12 [Example 247],0 to 100,> 100
"COCc1ccnc2nc(NC3CCN(C)CC3)nc(N)c12 [Example 248, 5-(methoxymethyl)-N^2-(1-methylpiperidin-4-yl)pyrido[2,3-d]pyrimidine-2,4-diamine]",0 to 100,> 100
"C#Cc1ccnc2nc(NC3CCN(C)CC3)nc(N)c12 [Example 249, 5-ethynyl-N^2-(1-methylpiperidin-4-yl)pyrido[2,3-d]pyrimidine-2,4-diamine]",100 to 3000,10 to 100
"CN1CCC(Nc2nc(N)c3c(C#N)ccnc3n2)CC1 [Example 250, 4-amino-2-((1-methylpiperidin-4-yl)amino)pyrido[2,3-d]pyrimidine-5-carbonitrile]",0 to 100,> 100
"CC#Cc1ccnc2nc(NC3CCN(C)CC3)nc(N)c12 [Example 251, N^2-(1-methylpiperidin-4-yl)-5-(prop-1-yn-1-yl)pyrido[2,3-d]pyrimidine-2,4-diamine]",100 to 3000,10 to 100
"COC(C)c1ccnc2nc(NC3CCN(C)CC3)nc(N)c12 (stereo not shown) [Example 252, 5-(1-methoxyethyl)-N^2-(1-methylpiperidin-4-yl)pyrido[2,3-d]pyrimidine-2,4-diamine]",0 to 100,> 100
"Cc1cccc(-c2cc(C)c3c(N)nc(NCCCN4CCOCC4)nc3n2)c1 [Example 253, 5-methyl-N2-(3-morpholinopropyl)-7-(m-tolyl)pyrido[2,3-d]pyrimidine-2,4-diamine]",,1 to 10
"Cc1cc(C)c2c(N)cc(NCCCCN(C)C)nc2n1 [Example 254, N^2-(4-(dimethylamino)butyl)-5,7-dimethyl-1,8-naphthyridine-2,4-diamine]",100 to 3000,10 to 100
"Cc1cc(C)c2c(N)cc(N[C@@H]3CCNC3)nc2n1 [Example 255, (R)-5,7-dimethyl-N^2-(pyrrolidin-3-yl)-1,8-naphthyridine-2,4-diamine]",,0.1 to 1
"CNc1cc(N[C@@H]2CCNC2)nc2nc(C)cc(C)c12 [Example 256, (R)—N^4,5,7-trimethyl-N^2-(pyrrolidin-3-yl)-1,8-naphthyridine-2,4-diamine]",,0.1 to 1
"CNc1c(C)c(NC2CCN(C)CC2)nc2nc(C)cc(C)c12 [Example 257, N^4,3,5,7-tetramethyl-N^2-(1-methylpiperidin-4-yl)-1,8-naphthyridine-2,4-diamine]",0 to 100,> 31.6
"CNc1cc(N[C@@H]2CCN(C)C2)nc2nc3c(c(C)c12)CCC3 [Example 258, (R)—N^4,5-dimethyl-N^2-(1-methylpyrrolidin-3-yl)-7,8-dihydro-6H-cyclopenta[b][1,8]naphthyridine-2,4-diamine]",100 to 3000,0.1 to 1
"CNc1cc(NC2CCN(C)CC2)nc2nc(C)cc(C)c12 [Example 261, N^4,5,7-trimethyl-N^2-(1-methylpiperidin-4-yl)-1,8-naphthyridine-2,4-diamine]",100 to 3000,1 to 10
Cc1cc(C)c2c(N(C)C)nc(NC3CCN(C)CC3)nc2n1 [Example 262],100 to 3000,10 to 100
Cc1cc(C)c2c(NC(C)C)nc(NC3CCN(C)CC3)nc2n1 [Example 264],100 to 3000,1 to 10

SMILES,Emax [%],EC (100% of 200 uM G418 response) [µM]
Cc1cc(C)c2c(N(C)C3CC3)nc(NC3CCN(C)CC3)nc2n1 [Example 265],0 to 100,> 100
Cc1cc(C)c2c(N3CCOCC3)nc(NC3CCN(C)CC3)nc2n1 [Example 266],0 to 100,> 100
Cc1cc(C)c2c(Nc3ccccc3)nc(NC3CCN(C)CC3)nc2n1 [Example 267],0 to 100,> 31.6
Cc1cc(C)c2c(NCc3ccccc3)nc(NC3CCN(C)CC3)nc2n1 [Example 268],100 to 3000,1 to 10
COCCNc1nc(NC2CCN(C)CC2)nc2nc(C)cc(C)c12 [Example 269],100 to 3000,1 to 10
Cc1cc(C)c2c(NCCN(C)C)nc(NC3CCN(C)CC3)nc2n1 [Example 270],100 to 3000,1 to 10
Cc1nc2nc(NC3CCN(C)CC3)nc(N)c2c(-c2ccccc2)c1Cl [Example 271],0 to 100,> 31.6
Cc1nc2nc(NC34CCN(CC3)CC4)nc(N)c2c2c1CCC2 [Example 272],100 to 3000,0.1 to 1
Cc1cc(C)c2c(NCCO)nc(NC3CCN(C)CC3)nc2n1 [Example 273],,1 to 10
CN1CCC(Nc2nc(N)c3c4c(cnc3n2)CCC4)CC1 [Example 274],,1 to 10
CN1CCC(Nc2nc(N)c3cc4c(nc3n2)CCC4)CC1 [Example 275],,1 to 10
CC(C)c1cnc2nc(NC3CCN(C)CC3)nc(N)c2c1 [Example 276],100 to 3000,10 to 100
CN1CCC(Nc2nc(N)c3cc(C#N)cnc3n2)CC1 [Example 277],0 to 100,> 31.6
C#Cc1cnc2nc(NC3CCN(C)CC3)nc(N)c2c1 [Example 278],0 to 100,> 31.6
Cc1cc(C)c2c(N)nc(NC3CCNCC3)nc2n1 [Example 279],100 to 3000,1 to 10
CNCCCNc1nc(N)c2c(C)cc(C)nc2n1 [Example 280],,1 to 10
COc1ccnc2nc(NC3CCN(C)CC3)nc(N)c12 [Example 281],100 to 3000,10 to 100
CN1CCC(Nc2nc(N)c3ccc(C#N)nc3n2)CC1 [Example 282],0 to 100,> 31.6
CC#Cc1ccc2c(N)nc(NC3CCN(C)CC3)nc2n1 [Example 283],,1 to 10
COC(C)c1cnc2nc(NC3CCN(C)CC3)nc(N)c2c1 (stereo not shown) [Example 284],0 to 100,> 31.6
CNCCNc1nc(N)c2c(C)cc(C)nc2n1 [Example 285],,1 to 10
CC(CO)c1cnc2nc(NC3CCN(C)CC3)nc(N)c2c1 (stereo not shown) [Example 286],0 to 100,> 100
CN1CCC(Nc2nc(N)c3cc(C(=O)O)cnc3n2)CC1 [Example 287],0 to 100,> 100
CC(O)c1ccc2c(N)nc(NC3CCN(C)CC3)nc2n1 (stereo not shown) [Example 288],100 to 3000,10 to 100
CC(=O)c1ccc2c(N)nc(NC3CCN(C)CC3)nc2n1 [Example 289],100 to 3000,1 to 10
COC(C)c1ccc2c(N)nc(NC3CCN(C)CC3)nc2n1 (stereo not shown) [Example 290],100 to 3000,10 to 100
